Experimental data taken from US10441663B2, “Methods for treating cancer” (Bicycle Therapeutics Limited, priority 2016, dated 2019).
*1 amine or outer side, *2 acyl side, *3 side chain or, on linkers, in order; H or OH if unused. Where a SMILES comes first, the peptide text is derived from it. Bridges are numbered along the chain shown (N, C = ends). [ ]: non-standard residue; d: D form. The star is where a group is joined. X1 = COc1cc2cc(c1Cl)N(C)C(=O)C[C@H](OC(=O)[C@H](C)N(C)C(=O)CCSSC(C)CCC(=O)*)[C@]1(C)O[C@H]1[C@H](C)[C@@H]1C[C@@](O)(NC(=O)O1)[C@H](OC)/C=C/C=C(\C)C2; 1Nal = N[C@@H](Cc1cccc2ccccc12)C(=O)O; TBMB = c1c(C[*:1])cc(C[*:3])cc1C[*:2]; Tle = CC(C)(C)[C@H](N)C(=O)O; βAla = NCCC(=O)O; Sar = CNCC(=O)O

Test system: LU-01-0251 non-small-cell lung carcinoma (NSCLC) PDX model
Test: Efficacy in LU-01-0251 NSCLC PDX model (high MT1-expressing, docetaxel sensitive)
Type: in vivo, Balb/C nude mice
Source text: The objective of the project is to evaluate the in vivo therapeutic efficacy of test articles in the LU-01-0251 non-small-cell lung carcinoma (NSCLC) PDX model. LU-01-0251 is a high MT1-expressing NSCLC that is docetaxel sensitive.
Each mouse was inoculated subcutaneously at the right flank with certain kind of tumor fragment (30 mm3) for tumor development. The treatments started when the average tumor volume reaches approximately 150-200 mm^3. The test article administration and the animal numbers in each group are shown in Table 40 which details the experimental design.
Treatment was given until the control tumors reached an average of 1000 mm^3.
Before commencement of treatment all animals will be weighed and the tumor volumes will be measured. Since the tumor volume can affect the effectiveness of any given treatment, mice will be assigned into groups using randomized block design based upon their tumor volumes.
The protocol and any amendment(s) or procedures involving the care and use of animals in this study will be reviewed and approved prior to conduct. […] At the time of routine monitoring, the animals will be checked for any effects of tumor growth and treatments on normal behavior such as mobility, food and water consumption, body weight gain/loss (body weights will be measured twice weekly), eye/hair matting and any other abnormal effect. Death and observed clinical signs will be recorded on the basis of the numbers of animals within each subset.
The major endpoint is to see if the tumor growth can be delayed or mice can be cured. Tumor sizes will be measured twice weekly in two dimensions using a caliper and the volume will be expressed in mm^3 using the formula: V=0.5 a×b^2 where a and b are the long and short diameters of the tumor, respectively. […] T-C is calculated with T as the median time (in days) required for the treatment group tumors to reach a predetermined size (e.g., 1.000 mm^3), and C is the median time (in days) for the control group tumors to reach the same size. […]
TGI is calculated for each group using the formula. […]

COc1cc2cc(c1Cl)N(C)C(=O)C[C@H](OC(=O)[C@H](C)N(C)C(=O)CCSSC(C)CCC(=O)NCCC(=O)N(C)CC(=O)N(C)CC(=O)N(C)CC(=O)N(C)CC(=O)N(C)CC(=O)N(C)CC(=O)N(C)CC(=O)N(C)CC(=O)N(C)CC(=O)N(C)CC(=O)N[C@@H](C)C(=O)N[C@H]1CSCc3cc4cc(c3)CSC[C@H](NC(=O)[C@@H](C)NC(=O)[C@H](Cc3cccc5ccccc35)NC(=O)[C@H](CCC(=O)O)NC(=O)[C@H](CC(N)=O)NC(=O)[C@@H](C)NC1=O)C(=O)N[C@@H](CCC(=O)O)C(=O)N[C@@H](CC(=O)O)C(=O)N[C@@H](Cc1ccccc1)C(=O)N[C@@H](Cc1ccc(O)cc1)C(=O)N[C@@H](CC(=O)O)C(=O)N[C@@H](C(C)(C)C)C(=O)N[C@H](C(N)=O)CSC4)[C@]1(C)O[C@H]1[C@H](C)[C@@H]1C[C@@](O)(NC(=O)O1)[C@H](OC)/C=C/C=C(\C)C2 (stereo partly drawn) [BT1718] ({X1-βAla}-[Sar][Sar][Sar][Sar][Sar][Sar][Sar][Sar][Sar][Sar]AC[dA]NE[1Nal][dA]CEDFYD[Tle]C-NH2; linker 12-18-25 via TBMB (inferred))
tumor response (3 mg/kg biw): tumor stasis
relapse after cessation of dosing (10 mg/kg biw): lack of relapse
tumor response (10 mg/kg biw): tumor eradication
